In patent US20250296961A1, “ANTIMICROBIAL PEPTIDES FOR REMINERALIZATION OF TEETH AND PREVENTION OF DENTAL CARIES” (The University of Hong Kong, priority 2021, published 2025):
Like-named read-outs stand apart in the source and are kept apart here. Residues, ends and D or L forms follow the SMILES beside them. No end group written: not given here.

Columns and labels:
[1] = for Peptide concentration incubated in human saliva: 37° C.; for Stability: summary grade
Procedure: (§1) The collected saliva samples were centrifuged at 12,000 rpm for 20 min^21]. The supernatant was filtered to remove any debris. […] At 0, 0.5, 1, 2, 4, and 6 h, 40 uL solutions were taken from each sample and were analysed by High Performance Liquid Chromatography (HPLC-UV, 1525 Binary HPLC Pump, 2489 UV/Visible Detector, Waters, USA).

[2] = system: MC3T3-E1 cells
Procedure: (§2) Cells exposed to α-MEM without peptide was the control group. Cells viability after peptide exposure was evaluated by cell survival rate using Cell Counting Kit-8 assay (CCK-8 assay, Sigma-Aldrich, St. Louis, USA).

[3] = in vitro; details: human, human saliva (centrifuged, filtered supernatant)
Procedure: as §1

[4] = in vitro; details: mouse, MC3T3-E1 cells
Procedure: as §2

[5] = Stability of 8DSS-C8-P-113 hydrogel on tooth surface in flow water (BCA); format: physicochemical; details: 16 μM mL^−1, flow water 30 mL h-1, 2 h
Procedure: 20 μL of 16 μM mL^−1 solution of 8DSS-C8-P-113 was applied to the tooth surface (N=5), and self-formed a layer of hydrogel sticking to the bottom of a hand-made instrument (FIG. 2J). To simulate the average human salivary flow rate, a stable flow of deionized water at a rate of 30 mL h-1 was provided using a Syringe Pump (LSP02-1B Double Channel inject/extract, China). The drained liquid, approximately 15 mL, was collected every 30 min. A sample of 100 μL of 16 μM mL^−1 solution of 8DSS-C8-P-113 was added to 15 mL of deionized water to serve as the 0 min sample. After 2 h, the drained liquids collected at 30 min, 60 min, 90 min, and 120 min were tested for their concentrations using Pierce BCA Protein Assay Kit (Rockford, IL).

[6] = system: S. mutans; set-up: species or system Sprague-Dawley rats; details: rat, in vivo
Procedure: The rat caries model was conducted under the protocol approved by the Ethics Committee of Anhui Medical University, China (ref. no. LLSC20232002) in accordance with national and international guidelines to minimise animal suffering. Ten male specific pathogen-free Sprague-Dawley rats aged 6 weeks were selected. The rats were provided with appropriate antibiotics (ampicillin, chloramphenicol, and carbencillin 1.0 g/kg/day) in the drinking water for 3 days. […] The infection was confirmed by oral swabbing and culturing on mitis salivarius-bacitracin (MSB) agar plates. The infected animals were randomly assigned into two groups (N=10): 16 μM mL^−1 of 8DSS-C8-P-113 in 10 mM HEPES (pH=7, n=5) and 10 mM HEPES (n=5, control group). Animals in each group were treated with 150 μL of the respective treatment topically using dental bonding brush for 2 min once daily for 4 weeks. […] The severity of caries was evaluated by the Keyes' scoring system which categorizes caries as enamel only (E), dentin exposed ¼ to ¾ (Ds), or more than ¾ dentin affected (Dm). The rats' weights were recorded to monitor for signs of toxicity. Additionally, various tissues from gingiva, palate, heart, liver, spleen, lung, and kidney were collected, stained with hematoxylin and eosin (H&E), and histopathologically analysed.

Compound | Peptide concentration incubated in human saliva ([1]; 0 h) [mg/mL] | Peptide concentration incubated in human saliva ([1]; 0.5 h) [mg/mL] | Peptide concentration incubated in human saliva ([1]; 1 h) [mg/mL] | Peptide concentration incubated in human saliva ([1]; 2 h) [mg/mL] | Peptide concentration incubated in human saliva ([1]; 4 h) [mg/mL] | Peptide concentration incubated in human saliva ([1]; 6 h) [mg/mL] | Stability [1] | Cytocompatibility [2] | remaining at 6 h, 1 mg mL^−1 [3] [%] | viability at 24 h, 2 ×MBC [4] [%] | Hydrogel remaining on the tooth surface (of initial status) [5] | Hydrogel remaining on the tooth surface (of initial status) ([5]; listed as 8DSS-C8-P-113 hydrogel) | Histopathology analysis (H&E) [6]
CC(C)C[C@H](NC(=O)[C@H](CCCNC(=N)N)NC(=O)[C@H](Cc1ccccc1)NC(=O)[C@H](Cc1ccccc1)NC(=O)[C@@H](NC(=O)[C@H](COP(=O)(O)O)NC(=O)[C@@H](N)COP(=O)(O)O)[C@@H](C)O)C(=O)N[C@@H](Cc1ccccc1)C(=O)N[C@@H](CC(N)=O)C(=O)N[C@@H](CCCNC(=N)N)C(=O)N[C@@H](C)C(=O)N[C@@H](CCCCN)C(=O)N[C@@H](CCCNC(=N)N)C(=O)N[C@@H](Cc1c[nH]cn1)C(=O)N[C@@H](Cc1c[nH]cn1)C(=O)NCC(=O)N[C@@H](Cc1ccc(O)cc1)C(=O)N[C@@H](CCCCN)C(=O)N[C@@H](CCCNC(=N)N)C(=O)N[C@@H](CCCCN)C(=O)N[C@@H](Cc1ccccc1)C(=O)N[C@@H](Cc1c[nH]cn1)C(=O)O [DPS-C8-P-113] (HELM PEPTIDE1{[N[C@@H](COP(=O)(O)O)C(=O)[*:2]].[O=C([C@H](COP(=O)(O)O)N[*:1])[*:2]].T.F.F.R.L.F.N.R.A.K.R.H.H.G.Y.K.R.K.F.H}$$$$V2.0) | 1 | 0.9818 | 0.9785 | 0.9504 | 0.5388 | 0.562 | ++ | + | 56.2 | 48 | – | – | –
DSSDSSDSSDSSDSSDSSDSSDSSTFFRLFNRAKRHHGYKRKFH [8DSS-C8-P-113] | 1 | 0.9942 | 0.987 | 0.9885 | 0.8991 | 0.894 | +++ | ++ | 89.4 | – | over 80% | approximately 82.15% | No signs of inflammatory reaction, proliferative changes, or necrosis
